Measurements reported in publication PMC12190468, “Designing New Chimeric Proline-Rich Antimicrobial Peptides to Enhance Efficacy Toward the ESKAPE+E: Beyond Sequence Extension” (Biomolecules, 2025).
Ends that are not written are not given here.

Tests used:
A. baumannii ATCC 19606 [1] = assay type: cell-based, Acinetobacter baumannii; details: ATCC 19606, 18 h
Protocol: (§1) Reference bacterial strains, including Escherichia coli BW25113, Escherichia coli ATCC 25922, Klebsiella pneumoniae ATCC 700603, Acinetobacter baumannii ATCC 19606, Enterobacter cloacae ATCC 13047, Pseudomonas aeruginosa ATCC 27853, Staphylococcus aureus ATCC 25923, and Enterococcus faecium ATCC 19434, were obtained from the American Type Culture Collection (ATCC) in Manassas, VA, USA. Strains were stored at −80 °C in glycerol stocks until use. For all experiments, cultures were grown in sterile MHB (Difco Inc., Becton Dickinson, Sparks, MD, USA). Overnight cultures were incubated at 37 °C for approximately 18 h under shacking (140 rpm, then diluted 1:30 in fresh MHB and again shaken at 140 rpm for ~2 h to reach the mid-log phase (OD ~0.3 at 600 nm). The bacterial cultures were then diluted to the desired concentration for experiments. E. coli BW25113 ΔsbmA (Keio collection) was grown in MHB with the addition of 50 μg/mL kanamycin (Sigma, Milan, Italy).
(§2) Antimicrobial activity was assessed using the Minimum Inhibitory Concentration (MIC) assay, following CLSI guidelines. Briefly, peptides were serially diluted in MHB across a 96-well round-bottom plate (Sarstedt, Milan, Italy), starting with 50 μL in the first well. A mid-log bacterial culture was diluted to 5 × 10^5 CFU/mL, and 50 μL of this suspension was added to each well (except the MHB sterility control wells). […] MIC values were confirmed by at least three independent experiments (n ≥ 3).

E. cloacae ATCC 13047 [2] = assay type: cell-based, Enterobacter cloacae; details: ATCC 13047, 18 h
Protocol: as §1, §2

E. coli ATCC 25922 [3] = assay type: cell-based, Escherichia coli; details: ATCC 25922, 18 h
Protocol: as §1, §2

E. coli BW 25113 ΔsbmA [4] = assay type: cell-based, Escherichia coli; details: full MHB, 18 h at 37 °C, mode of at least three independent experiments
Protocol: as §1, §2

E. coli BW 25113 [5] = assay type: cell-based, Escherichia coli; details: full MHB, 18 h at 37 °C, mode of at least three independent experiments
Protocol: as §1, §2

E. faecium ATCC 19434 [6] = assay type: cell-based, Enterococcus faecium; details: ATCC 19434, 18 h
Protocol: as §1
(§3) The Minimal Bactericidal Concentration (MBC) was determined by plating 25 μL from clear MIC wells onto MH-agar Petri dishes (Difco Inc., Becton Dickinson, Sparks, MD, USA), followed by overnight incubation at 37 °C. The MBC was the lowest compound concentration, reducing bacterial viability by ≥99.9%. Results were based on at least three independent experiments (n ≥ 3).

E. faecium ATCC 19434 [7] = assay type: cell-based, Enterococcus faecium; details: ATCC 19434, 18 h; remark: listed apart in the source
Protocol: as §1, §2

E. coli ATCC 25922 [8] = assay type: cell-based, Escherichia coli; details: ATCC 25922, 18 h; remark: listed apart in the source
Protocol: as §1, §3

E. coli BW 25113 ΔsbmA [9] = assay type: cell-based, Escherichia coli; details: ≥99.9% reduction of viability, after 18 h at 37 °C, mode of at least three independent experiments
Protocol: as §1, §3

E. coli BW 25113 [10] = assay type: cell-based, Escherichia coli; details: ≥99.9% reduction of viability, after 18 h at 37 °C, mode of at least three independent experiments
Protocol: as §1, §3

E. cloacae ATCC 13047 [11] = assay type: cell-based, Enterobacter cloacae; details: ATCC 13047, 18 h; remark: listed apart in the source
Protocol: as §1, §3

P. aeruginosa ATCC 27853 [12] = assay type: cell-based, Pseudomonas aeruginosa; details: ATCC 27853, 18 h
Protocol: as §1, §2

S. aureus ATCC 25923 [13] = assay type: cell-based, Staphylococcus aureus; details: ATCC 25923, 18 h
Protocol: as §1, §2

P. aeruginosa ATCC 27853 [14] = assay type: cell-based, Pseudomonas aeruginosa; details: ATCC 27853, 18 h; remark: listed apart in the source
Protocol: as §1, §3

S. aureus ATCC 25923 [15] = assay type: cell-based, Staphylococcus aureus; details: ATCC 25923, 18 h; remark: listed apart in the source
Protocol: as §1, §3

A. baumannii ATCC 19606 [16] = assay type: cell-based, Acinetobacter baumannii; details: ATCC 19606, 18 h; remark: listed apart in the source
Protocol: as §1, §3

[17] = test system: K. pneumoniae ATCC 700603; assay type: cell-based, Klebsiella pneumoniae; details: ATCC 700603, 18 h
Protocol: as §1, §3

A549 cells = assay type: cell-based, human
Protocol: The human lung carcinoma epithelial cell line (A549) was obtained from the American Type Culture Collection (ATCC) (Manassas, VA, USA). A549 cells were cultured in adhesion flasks (EuroClone, Milan, Italy) with complete Dulbecco’s MEM (DMEM, EuroClone, Milan, Italy) containing high glucose, supplemented with 100 U/mL penicillin, […] streptomycin (Sigma, Milan, Italy), 2 mM L-glutamine, and 10% FBS (Life Technologies, Carlsbad, CA, USA). Cells were incubated at 37 °C with 5% CO2.
Cytotoxicity in A549 cells was assessed using the MTT assay. After reaching confluence, cells were counted using a Bürker–Türk chamber and diluted to 2 × 10^5 cells/mL in DMEM. A total of 100 μL of this suspension was seeded into 96-well plates (Sarstedt, Milan, Italy) and incubated overnight at 37 °C with 5% CO2. The next day, the spent medium was replaced with 100 μL of fresh DMEM medium containing peptide or water at the desired concentration. After 20 h of incubation, 25 μL of 1 mg/mL MTT (Sigma, Milan, Italy) in PBS was added, and the plates were incubated for 4 h in the dark. […] After overnight incubation, absorbance was measured at 570 nm using a Nanoquant Infinite-M200Pro plate reader (Tecan Trading AG, Switzerland). The cytotoxicity was calculated by comparing the OD of treated samples with that of untreated controls. […]

[18] = test system: K. pneumoniae ATCC 700603; assay type: cell-based, Klebsiella pneumoniae; details: ATCC 700603, 18 h; remark: listed apart in the source
Protocol: as §1, §2

## WRIRRRWPRLPRPRWRPRFPPP [Peptide B7-T6]
A. baumannii ATCC 19606 [1]
  MIC: 1 µM
E. cloacae ATCC 13047 [2]
  MIC: 2 µM
  MIC (geometric mean): 2,5 µM
E. coli ATCC 25922 [3]
  MIC: 0.5 µM
  MIC (geometric mean): 0,6 µM
E. coli BW 25113 ΔsbmA [4]
  MIC: 1 µM
E. coli BW 25113 [5]
  MIC: 1 µM
E. faecium ATCC 19434 [6]
  MBC: >64 µM
E. faecium ATCC 19434 [7]
  MIC: 16 µM
E. coli ATCC 25922 [8]
  MBC: 0.5 µM
  MBC (geometric mean): 0,6 µM
E. coli BW 25113 ΔsbmA [9]
  MBC: 2 µM
E. coli BW 25113 [10]
  MBC: 2 µM
E. cloacae ATCC 13047 [11]
  MBC: 4 µM
P. aeruginosa ATCC 27853 [12]
  MIC: 8 µM
  MIC (geometric mean): 12,7 µM
S. aureus ATCC 25923 [13]
  MIC: 16 µM
P. aeruginosa ATCC 27853 [14]
  MBC: 32 µM
  MBC (geometric mean): 25,4 µM
S. aureus ATCC 25923 [15]
  MBC: 32 µM
  MBC (geometric mean): 25,4 µM

## WRIRRRWPRLPRPRWRPRFPPPFPIPR [Peptide B7-T11]
A. baumannii ATCC 19606 [1]
  MIC: 1 µM
  MIC (geometric mean): 1,3 µM
E. coli ATCC 25922 [3]
  MIC: 2 µM
  MIC (geometric mean): 1,3 µM
E. coli BW 25113 ΔsbmA [4]
  MIC: 1 µM
E. coli BW 25113 [5]
  MIC: 1 µM
E. faecium ATCC 19434 [6]
  MBC: 32 µM
  MBC (geometric mean): 40,3 µM
E. faecium ATCC 19434 [7]
  MIC: 4 µM
  MIC (geometric mean): 5,0 µM
E. coli ATCC 25922 [8]
  MBC: 2 µM
  MBC (geometric mean): 1,3 µM
E. coli BW 25113 ΔsbmA [9]
  MBC: 2 µM
E. coli BW 25113 [10]
  MBC: 1 µM
P. aeruginosa ATCC 27853 [12]
  MIC: 16 µM
  MIC (geometric mean): 12,7 µM
A. baumannii ATCC 19606 [16]
  MBC: 2 µM
  MBC (geometric mean): 1,6 µM
S. aureus ATCC 25923 [13]
  MIC: 16 µM
  MIC (geometric mean): 12,7 µM
[17]
  MBC: 4 µM
  MBC (geometric mean): 3,2 µM
P. aeruginosa ATCC 27853 [14]
  MBC: 16 µM
  MBC (geometric mean): 20,2 µM
A549 cells
  Cytotoxicity toward A549 cells (MTT) at 64 µM: cytotoxic
S. aureus ATCC 25923 [15]
  MBC: 16 µM
  MBC (geometric mean): 20,2 µM

## WRIRRRWPRLPRPRWRPWFPPR [Peptide B7-L6]
A. baumannii ATCC 19606 [1]
  MIC: 2 µM
  MIC (geometric mean): 1,6 µM
E. coli ATCC 25922 [3]
  MIC: 4 µM
  MIC (geometric mean): 3,2 µM
E. coli BW 25113 ΔsbmA [4]
  MIC: 2 µM
E. faecium ATCC 19434 [6]
  MBC: 32 µM
  MBC (geometric mean): 40,3 µM
E. coli ATCC 25922 [8]
  MBC: 4 µM
  MBC (geometric mean): 3,2 µM
E. coli BW 25113 ΔsbmA [9]
  MBC: 2 µM
E. coli BW 25113 [10]
  MBC: 1 µM
E. cloacae ATCC 13047 [11]
  MBC: 2 µM
  MBC (geometric mean): 2,5 µM
P. aeruginosa ATCC 27853 [12]
  MIC: 4 µM
  MIC (geometric mean): 5,0 µM
A. baumannii ATCC 19606 [16]
  MBC: 2 µM
  MBC (geometric mean): 1,6 µM
[18]
  MIC: 2 µM
  MIC (geometric mean): 2,5 µM
[17]
  MBC: 4 µM
  MBC (geometric mean): 3,2 µM
S. aureus ATCC 25923 [15]
  MBC: 8 µM
  MBC (geometric mean): 10,1 µM

## WRIRRRWPRLPRPRWRPWFPPRFPIPR [Peptide B7-L11]
E. coli ATCC 25922 [3]
  MIC: 2 µM
  MIC (geometric mean): 2,5 µM
E. coli BW 25113 ΔsbmA [4]
  MIC: 2 µM
E. coli BW 25113 [5]
  MIC: 1 µM
E. faecium ATCC 19434 [6]
  MBC: 16 µM
E. coli ATCC 25922 [8]
  MBC: 2 µM
  MBC (geometric mean): 2,5 µM
E. coli BW 25113 ΔsbmA [9]
  MBC: 2 µM
E. coli BW 25113 [10]
  MBC: 2 µM
E. cloacae ATCC 13047 [11]
  MBC: 2 µM
  MBC (geometric mean): 2,5 µM
P. aeruginosa ATCC 27853 [12]
  MIC: 8 µM
  MIC (geometric mean): 6,3 µM
[18]
  MIC: 2 µM
  MIC (geometric mean): 2,5 µM
S. aureus ATCC 25923 [13]
  MIC (geometric mean): 5,0 µM
[17]
  MBC: 4 µM
  MBC (geometric mean): 3,2 µM
